Assay results: ChEMBL document CHEMBL1152247, “Identification of novel inhibitors of extracellular signal-regulated kinase 2 based on the structure-based virtual screening” (Bioorg Med Chem Lett, 2008)

Key:
[1] = target: T1, Mitogen-activated protein kinase 1 (Homo sapiens, UniProt P28482); experiment: Inhibition of recombinant ERK2
[2] = target: T1, Mitogen-activated protein kinase 1; experiment: Inhibition of recombinant ERK2 at 100 uM
[3] = target: Mitogen-activated protein kinase 14 (Homo sapiens) (UniProt Q16539); experiment: Inhibition of p38-alpha at 100 uM
Mitogen-activated protein kinase 14 (Homo sapiens), sequence (Q16539 whole entry): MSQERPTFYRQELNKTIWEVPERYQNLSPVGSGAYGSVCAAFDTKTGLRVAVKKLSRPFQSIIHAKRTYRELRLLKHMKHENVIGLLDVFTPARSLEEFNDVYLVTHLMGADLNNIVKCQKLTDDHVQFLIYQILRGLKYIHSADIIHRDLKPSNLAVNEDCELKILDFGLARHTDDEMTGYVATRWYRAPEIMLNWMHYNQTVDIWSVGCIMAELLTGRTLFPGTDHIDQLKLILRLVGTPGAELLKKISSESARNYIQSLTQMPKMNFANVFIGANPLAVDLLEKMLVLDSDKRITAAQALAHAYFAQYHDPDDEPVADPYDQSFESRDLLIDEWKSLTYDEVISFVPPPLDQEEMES

T1 sequence (P28482 whole entry): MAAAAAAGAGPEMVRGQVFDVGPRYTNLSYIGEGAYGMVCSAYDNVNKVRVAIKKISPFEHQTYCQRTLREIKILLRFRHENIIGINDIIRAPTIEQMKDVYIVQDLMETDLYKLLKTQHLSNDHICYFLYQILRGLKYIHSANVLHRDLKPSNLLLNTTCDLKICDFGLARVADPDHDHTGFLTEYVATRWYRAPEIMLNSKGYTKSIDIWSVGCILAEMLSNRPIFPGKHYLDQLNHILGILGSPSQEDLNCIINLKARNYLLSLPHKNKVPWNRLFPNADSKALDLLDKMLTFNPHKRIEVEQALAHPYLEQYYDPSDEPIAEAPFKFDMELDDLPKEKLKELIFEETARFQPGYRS

Row | IC50 [1] | inhibition [2] | inhibition [3] | SMILES
1 | 23.7 µM | – | – | O=C1/C(=C/C=C/c2ccccc2)SC(=S)N1Cc1ccc2c(c1)OCO2
2 | 14.3 µM | – | – | COc1cc(/C=C2\SC(=S)N(Cc3ccccc3)C2=O)ccc1O
3 | 16.9 µM | 87.9% | 12.3% | Cc1ccc(COc2ccc(-c3n[nH]cc3-c3ccccc3)c(O)c2)cc1
4 | 5.5 µM | 92.7% | 16.7% | O=C1/C(=C/c2ccc(O)cc2)SC(=S)N1Cc1ccccc1
5 | 8.3 µM | 93.1% | 24.5% | O=C(Nc1nc(NC(=O)c2ccccc2)n(-c2ccccc2)n1)c1ccccc1
6 | 27.4 µM | – | – | COc1ccccc1-c1c[nH]nc1-c1ccc(OCc2ccccc2F)cc1O
7 | 18.3 µM | – | – | O=C(Nc1nc(NC(=O)c2ccco2)n(-c2ccccc2)n1)c1ccccc1
8 | 25.6 µM | – | – | O=C(/C=C/c1ccccc1)Nc1nc(NC(=O)c2ccccc2)nn1-c1ccccc1
